Experimental data reported in the NIST ThermoML archive (doi:10.1016/j.fluid.2019.06.022).
Several values for one entry are separate records, joined by “and”; a condition that tells them apart may be missing. Equal values may be shown once.

Test: xn = mol fraction of the nth substance listed
Conditions: Liquid; for viscosity: Falling or rolling sphere viscometry; for mass density: Bellows volumetry

C=C [ethene] + Cc1ccccc1
Conditions	mass density	viscosity
369.3 K, 34800 kPa, x1 = 0.1131	–	0.305 mPa·s and 0.304 mPa·s
369.3 K, 48700 kPa, x1 = 0.1131	794.3 kg/m3	0.335 mPa·s
369.3 K, 48800 kPa, x1 = 0.1131	794.3 kg/m3	0.335 mPa·s
369.3 K, 68400 kPa, x1 = 0.1131	809.5 kg/m3	0.382 mPa·s
369.3 K, 68500 kPa, x1 = 0.1131	809.5 kg/m3	0.379 mPa·s
435.9 K, 15500 kPa, x1 = 0.3241	638 kg/m3	0.126 mPa·s
435.9 K, 15900 kPa, x1 = 0.3241	637.9 kg/m3	0.126 mPa·s
435.9 K, 27600 kPa, x1 = 0.3241	662 kg/m3	0.146 mPa·s
435.9 K, 27700 kPa, x1 = 0.3241	662 kg/m3	0.144 mPa·s
435.9 K, 41800 kPa, x1 = 0.3241	685.4 kg/m3	0.165 mPa·s
435.9 K, 42000 kPa, x1 = 0.3241	685.3 kg/m3 and 685.5 kg/m3	0.168 mPa·s and 0.164 mPa·s
435.9 K, 42200 kPa, x1 = 0.3241	685.4 kg/m3	0.166 mPa·s
435.9 K, 56000 kPa, x1 = 0.3241	703.4 kg/m3	0.192 mPa·s
435.9 K, 56200 kPa, x1 = 0.3241	703.4 kg/m3	0.188 mPa·s
435.9 K, 68400 kPa, x1 = 0.3241	716.8 kg/m3	0.202 mPa·s
435.9 K, 68500 kPa, x1 = 0.3241	716.8 kg/m3	0.199 mPa·s
437 K, 3900 kPa, x1 = 0.1131	678.2 kg/m3	0.155 mPa·s
437 K, 4200 kPa, x1 = 0.1131	678.2 kg/m3	0.153 mPa·s
437 K, 13700 kPa, x1 = 0.1131	699 kg/m3	0.173 mPa·s
437 K, 14100 kPa, x1 = 0.1131	699.1 kg/m3	0.172 mPa·s
437 K, 27600 kPa, x1 = 0.1131	721 kg/m3	0.196 mPa·s
437 K, 27800 kPa, x1 = 0.1131	721 kg/m3	0.197 mPa·s
437 K, 41400 kPa, x1 = 0.1131	738.3 kg/m3	0.22 mPa·s
437 K, 41500 kPa, x1 = 0.1131	738.3 kg/m3	0.22 mPa·s
437 K, 42400 kPa, x1 = 0.1131	740 kg/m3	0.222 mPa·s
437 K, 42700 kPa, x1 = 0.1131	740 kg/m3	0.224 mPa·s
437 K, 54200 kPa, x1 = 0.1131	750.9 kg/m3	0.242 mPa·s
437 K, 54300 kPa, x1 = 0.1131	750.9 kg/m3	0.243 mPa·s
437 K, 67900 kPa, x1 = 0.1131	763.9 kg/m3	0.264 mPa·s
522 K, 23100 kPa, x1 = 0.3241	555.7 kg/m3	0.097 mPa·s
522 K, 23200 kPa, x1 = 0.3241	555.5 kg/m3	0.095 mPa·s
522 K, 29400 kPa, x1 = 0.3241	574.4 kg/m3 and 574.7 kg/m3 and 574.6 kg/m3	0.102 mPa·s and 0.104 mPa·s
522 K, 29500 kPa, x1 = 0.3241	574.4 kg/m3	0.103 mPa·s
522 K, 38300 kPa, x1 = 0.3241	597 kg/m3 [middle of 4 runs]	0.114 mPa·s [middle of 4 runs]
522 K, 50700 kPa, x1 = 0.3241	621.2 kg/m3 and 620.9 kg/m3	0.125 mPa·s and 0.126 mPa·s
522 K, 50800 kPa, x1 = 0.3241	621.2 kg/m3	0.125 mPa·s
522 K, 50900 kPa, x1 = 0.3241	621.2 kg/m3	0.123 mPa·s
522 K, 68400 kPa, x1 = 0.3241	645.9 kg/m3	0.144 mPa·s
522 K, 68700 kPa, x1 = 0.3241	646 kg/m3	0.142 mPa·s
522.7 K, 9400 kPa, x1 = 0.1131	581.8 kg/m3	0.101 mPa·s
522.7 K, 9800 kPa, x1 = 0.1131	581.8 kg/m3	0.103 mPa·s
522.7 K, 31600 kPa, x1 = 0.1131	643.4 kg/m3	0.137 mPa·s
522.7 K, 32000 kPa, x1 = 0.1131	643.4 kg/m3	0.131 mPa·s
522.7 K, 32200 kPa, x1 = 0.1131	643.5 kg/m3	0.132 mPa·s
522.7 K, 41200 kPa, x1 = 0.1131	659.4 kg/m3	0.15 mPa·s
522.7 K, 41700 kPa, x1 = 0.1131	659.4 kg/m3	0.145 mPa·s
522.7 K, 56200 kPa, x1 = 0.1131	679.5 kg/m3	0.167 mPa·s
522.7 K, 56300 kPa, x1 = 0.1131	679.4 kg/m3	0.162 mPa·s
522.7 K, 67600 kPa, x1 = 0.1131	693.8 kg/m3	0.179 mPa·s
522.7 K, 68100 kPa, x1 = 0.1131	693.8 kg/m3	0.177 mPa·s
